This note sets out measurements from PubChem BioAssay (NCI).

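Assay format: 96-well plates, 48-hour exposure. Here, GI50 denotes the concentration required for 50% inhibition of growth. TGI: concentration producing complete growth inhibition.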 Bounds are passed on as bounds.

Among the test systems are HL-60(TB) leukemia; SK-MEL-2 melanoma; UACC-62 melanoma; HCT-116 colon; MDA-MB-435; HCT-15 colon; U251 CNS; UACC-257 melanoma; OVCAR-3 ovarian; IGROV1 ovarian.
Assay in all cases: NCI tumour cell line growth inhibition, 48 h

For `C/C(=C1/N=C(c2ccccc2)OC1=O)c1cccs1`, the TGI in the assay with HL-60(TB) leukemia, in the assay with SK-MEL-2 melanoma, in the assay on UACC-62 melanoma, with HCT-116 colon, in the assay with MDA-MB-435 and in the assay with HCT-15 colon was above 100 µM in each case. Also, the TGI in the assay with U251 CNS, with UACC-257 melanoma, in the assay on OVCAR-3 ovarian and in the assay on IGROV1 ovarian was above 100 µM each time.

As for `COc1ccc(C(=O)CC(Cl)=C(Cl)Cl)cc1`, the GI50 in the assay with HL-60(TB) leukemia is 34.2 µM; in the assay on SK-MEL-2 melanoma, 44.4 µM; in the assay with UACC-62 melanoma it was 21.7 µM; in the assay with HCT-116 colon, 22.2 µM; in the assay on MDA-MB-435, 24.8 µM; in the assay with HCT-15 colon, 28 µM. Also, the GI50 with U251 CNS was 36 µM; in the assay on UACC-257 melanoma it was 34.4 µM; in the assay on OVCAR-3 ovarian it was 20.6 µM; in the assay on IGROV1 ovarian, 28.3 µM. The TGI with HL-60(TB) leukemia is 95 µM; in the assay with SK-MEL-2 melanoma, above 100 µM; in the assay on UACC-62 melanoma, 49.9 µM; in the assay with HCT-116 colon, 63.4 µM; in the assay on MDA-MB-435, 62.7 µM; in the assay on HCT-15 colon, 97.4 µM. Also, the TGI in the assay with U251 CNS was above 100 µM; with UACC-257 melanoma, above 100 µM; in the assay with OVCAR-3 ovarian it was 41.2 µM; with IGROV1 ovarian, 75.9 µM.

Turning to `COC(=O)c1cc2c([nH]c3ccccc32)c(-c2nc3cc(N(S(=O)(=O)c4ccc(C)cc4)S(=O)(=O)c4ccc(C)cc4)c(OC)cc3cc2CO)n1`, the GI50 in the assay with HL-60(TB) leukemia is 31.7 µM; in the assay with SK-MEL-2 melanoma, above 100 µM; with UACC-62 melanoma, above 100 µM; in the assay with HCT-116 colon it was above 100 µM; with MDA-MB-435, above 100 µM; with HCT-15 colon, above 100 µM. Further, the GI50 with U251 CNS is 59.5 µM; in the assay with UACC-257 melanoma it was above 100 µM; in the assay with OVCAR-3 ovarian, above 100 µM; in the assay on IGROV1 ovarian it was above 100 µM. The TGI was 75.7 µM in the assay on HL-60(TB) leukemia; above 100 µM with SK-MEL-2 melanoma; above 100 µM in the assay on UACC-62 melanoma; above 100 µM in the assay with HCT-116 colon; above 100 µM with MDA-MB-435; above 100 µM in the assay on HCT-15 colon. In addition, the TGI with U251 CNS, in the assay on UACC-257 melanoma, with OVCAR-3 ovarian and in the assay with IGROV1 ovarian was above 100 µM each time.

Take `Cc1nn(-c2ccccc2)c2ncc3c(c12)C(=O)N(Cc1ccccc1)C3=O`: the GI50 was above 100 µM in the assay with HL-60(TB) leukemia; 13.7 µM with SK-MEL-2 melanoma; 21.5 µM in the assay on UACC-62 melanoma; 1.21 µM in the assay with HCT-116 colon; above 100 µM in the assay with MDA-MB-435; above 100 µM with HCT-15 colon. In addition, the GI50 is 3.12 µM with U251 CNS, above 100 µM in the assay with UACC-257 melanoma, 3.31 µM in the assay on OVCAR-3 ovarian and 5.37 µM with IGROV1 ovarian. Further, the TGI in the assay on HL-60(TB) leukemia is above 100 µM; in the assay with SK-MEL-2 melanoma, 31.5 µM; in the assay with UACC-62 melanoma, above 100 µM; with HCT-116 colon, 6.67 µM; in the assay on MDA-MB-435, above 100 µM; with HCT-15 colon it was above 100 µM. In addition, the TGI in the assay on U251 CNS is 14.2 µM; in the assay on UACC-257 melanoma, above 100 µM; in the assay with OVCAR-3 ovarian, 9.84 µM; in the assay on IGROV1 ovarian, 64.7 µM.

Regarding `COc1cc(C2C3=C(COC3=O)N(CCO)c3cc4c(cc32)CCC4)cc(OC)c1OC` (stereo not drawn), the GI50 with HL-60(TB) leukemia is 0.0842 µM; in the assay on SK-MEL-2 melanoma, 0.146 µM; with UACC-62 melanoma, 0.0749 µM; in the assay with HCT-116 colon, 0.0919 µM; in the assay with MDA-MB-435, 0.0279 µM; with HCT-15 colon, 0.199 µM. The GI50 in the assay on U251 CNS was 0.125 µM; with OVCAR-3 ovarian it was 0.0595 µM; in the assay on IGROV1 ovarian, 0.0732 µM. The TGI was above 9.09 µM in the assay on SK-MEL-2 melanoma; above 32.5 µM in the assay on UACC-62 melanoma; 0.409 µM with HCT-116 colon; 0.187 µM in the assay on MDA-MB-435; above 32.5 µM in the assay on HCT-15 colon; above 32.5 µM in the assay with U251 CNS. The TGI in the assay on UACC-257 melanoma was above 32.5 µM; in the assay with OVCAR-3 ovarian it was 0.129 µM; in the assay on IGROV1 ovarian, 0.232 µM.

For the compound `Cn1cc(C2=C(c3cn(CCCSC(=N)N)c4ccccc34)C(=O)NC2=O)c2ccccc21`, the GI50 is 0.789 µM with HL-60(TB) leukemia; 1.53 µM in the assay on SK-MEL-2 melanoma; 2.54 µM in the assay on UACC-62 melanoma; 1.1 µM in the assay on HCT-116 colon; 1.81 µM in the assay with MDA-MB-435; 4.71 µM in the assay with HCT-15 colon. Further, the GI50 is 1.61 µM in the assay with U251 CNS, 3.22 µM in the assay with UACC-257 melanoma, 2.4 µM in the assay with OVCAR-3 ovarian and 3.03 µM with IGROV1 ovarian. In addition, the TGI was 2.14 µM in the assay with HL-60(TB) leukemia; 5.2 µM in the assay on SK-MEL-2 melanoma; 5.7 µM in the assay on UACC-62 melanoma; 4.62 µM in the assay on HCT-116 colon; 5.59 µM in the assay with MDA-MB-435; 11.1 µM in the assay on HCT-15 colon. Besides, the TGI in the assay on U251 CNS came out at 5.06 µM; in the assay on UACC-257 melanoma, 6.73 µM; in the assay on OVCAR-3 ovarian it was 9.28 µM; in the assay with IGROV1 ovarian it was 12.3 µM.

Turning to `CCN(CC)CCC(CNc1c2ccc(Cl)cc2nc2ccc(OC)cc12)c1ccccc1` (stereo not drawn), the GI50 in the assay on HL-60(TB) leukemia was 1.87 µM; with SK-MEL-2 melanoma, 1.76 µM; in the assay on UACC-62 melanoma, 1.58 µM; in the assay on HCT-116 colon, 0.729 µM; in the assay on MDA-MB-435, 1.5 µM; with HCT-15 colon, 0.902 µM. In addition, the GI50 with U251 CNS was 1.56 µM; in the assay with UACC-257 melanoma, 2.01 µM; in the assay with OVCAR-3 ovarian, 1.71 µM; in the assay with IGROV1 ovarian, 1.21 µM. Further, the TGI in the assay on HL-60(TB) leukemia came to 4.71 µM; with SK-MEL-2 melanoma, 3.31 µM; in the assay with UACC-62 melanoma, 3.06 µM; in the assay on HCT-116 colon, 3.52 µM; in the assay on MDA-MB-435, 3.09 µM; in the assay with HCT-15 colon, 4.33 µM. The TGI turned out to be 3.21 µM in the assay on U251 CNS, 3.63 µM in the assay on UACC-257 melanoma, 4.7 µM in the assay with OVCAR-3 ovarian and 5.11 µM in the assay with IGROV1 ovarian.

`CC[N+]1(C)CCC(O)(/C=C/c2ccccc2)C(C(=O)/C=C/c2ccccc2)C1` (stereo not drawn): the TGI with HL-60(TB) leukemia turned out to be 8.48 µM; in the assay with SK-MEL-2 melanoma it was 39.5 µM; in the assay with UACC-62 melanoma, 33.4 µM; in the assay on HCT-116 colon, 38 µM; in the assay with MDA-MB-435, 31.7 µM; with HCT-15 colon it was 15.5 µM. The TGI in the assay with U251 CNS was found to be 22.5 µM; in the assay with UACC-257 melanoma, 24.8 µM; with OVCAR-3 ovarian, 28 µM; with IGROV1 ovarian, 37.9 µM.

`CCCC1C2=C(C(=O)OC2=O)C2C(CC)CC3=C(C(=O)OC3=O)C12` (stereo not drawn): the TGI with HL-60(TB) leukemia, in the assay on SK-MEL-2 melanoma, in the assay with UACC-62 melanoma, with HCT-116 colon, with MDA-MB-435 and in the assay on HCT-15 colon was above 100 µM in each case. Further, the TGI with U251 CNS, in the assay with UACC-257 melanoma, in the assay on OVCAR-3 ovarian and with IGROV1 ovarian was above 100 µM each time.

Turning to `O=C1C2=C(Nc3cc([N+](=O)[O-])ccc3N2)OC1c1c[nH]c2ccc(COc3ccccc3)cc12` (stereo not drawn), the TGI in the assay with HL-60(TB) leukemia was 17.7 µM; in the assay with SK-MEL-2 melanoma, above 100 µM; in the assay with UACC-62 melanoma, above 100 µM; in the assay on HCT-116 colon, above 100 µM; in the assay on MDA-MB-435 it was above 100 µM; in the assay with HCT-15 colon, above 100 µM. In addition, the TGI with U251 CNS, in the assay on UACC-257 melanoma, in the assay with OVCAR-3 ovarian and with IGROV1 ovarian was above 100 µM each time.

Regarding `O=C(/C=C\c1ccc(Cl)c(Cl)c1)c1ccccc1`, the GI50 is 5.46 µM in the assay on HL-60(TB) leukemia; 13.8 µM in the assay on SK-MEL-2 melanoma; 9.33 µM in the assay on UACC-62 melanoma; 1.91 µM with HCT-116 colon; 4.48 µM with MDA-MB-435; 2.84 µM in the assay on HCT-15 colon. For the same compound, the GI50 in the assay on U251 CNS was 3.34 µM; in the assay with UACC-257 melanoma, 12.2 µM; in the assay on OVCAR-3 ovarian, 6.34 µM; with IGROV1 ovarian it was 6.82 µM. Besides, the TGI in the assay on HL-60(TB) leukemia stood at 29.1 µM; in the assay on SK-MEL-2 melanoma, 27.4 µM; with UACC-62 melanoma, 21.6 µM; in the assay with HCT-116 colon, 3.89 µM; in the assay on MDA-MB-435, 16.7 µM; with HCT-15 colon, 10.3 µM. The TGI was found to be 15.6 µM in the assay on U251 CNS, 24.9 µM in the assay on UACC-257 melanoma, 18.9 µM in the assay on OVCAR-3 ovarian and 21 µM in the assay with IGROV1 ovarian.
